Measurements from patent US8058227B2, “Method of treating fibrosis in a subject in need thereof comprising administering a composition comprising a CSD” (Medical University of South Carolina, priority 2006, dated 2011).
Entries after “also recorded” stand apart in the source; their conditions may differ.

Experiments:
[1] = tested on: normal lung fibroblasts (NLF); test: CSD peptide treatment of NLF, Western blotting; assay type: cell-based, human
Source text: (§1) Fibroblasts were derived from lung tissue obtained at autopsy from scleroderma patients (SLF) and from age-, race-, and sex-matched normal subjects (NLF) and cultured as previously described (44). Cells were used in passages 2-4. The group of scleroderma patients fulfilled the criteria of American college of Rheumatology for the diagnosis of scleroderma with lung involvement. Normal human lung tissue was obtained from the Brain and Tissue Bank for Developmental Disorders (Baltimore, Md.) or from the National Disease Research Interchange (Philadelphia, Pa.). Scleroderma lung tissue was obtained from the Division of Pathology and Laboratory Medicine at the Medical University of South Carolina (MUSC). The study was approved by the Institutional Review Board for Human Subject Research at the MUSC.
(§2) The CSD peptide (amino acids 82-101 of caveolin-1; […]) (SEQ ID NO: 1) and a scrambled control peptide ([…]) (SEQ ID NO: 2) were synthesized as fusion peptides to the C terminus of the Antennapedia internalization sequence (RQIKUVFQNRRMKWKK) (SEQ ID NO: 3). Before each experiment, desiccated peptides were dissolved at a final 1 mM in 10% DMSO as described by Bernatchez et al. (4). Cells in 6-well plates at 70-80% confluence were then incubated with 1 ml serum-free DMEM containing […] CSD or scrambled peptide. After 6 h, the culture medium and cell layer were harvested.
(§3) Cell layers were harvested in boiling SDS-PAGE sample buffer; medium was dialyzed, lyophilized, and resuspended in sample buffer. Aliquots of culture medium or of cell layer representing material derived from the same number of cells was probed using the following primary antibodies and appropriate secondary antibodies. Culture medium: goat anti-human collagen I (AB758P) and rabbit anti-human tenascin-C (AB19011) from Chemicon International (Temecula, Calif.). Cell layer: rabbit antibodies against PKCα (sc-208), PKCε (sc-214), activated JNK (sc-12882), activated Akt Thr 308 (sc-166646R) and caveolin-1 (sc-894) from Santa Cruz Biotechnology (Santa Cruz, Calif.); rabbit antibodies against ERK 1/2 (9102), activated ERK 1/2 (9106), JNK (9252), Akt (9272), MEK 1/2 (9122), and activated MEK 1/2 (9121) from Cell Signaling (Beverly, Mass.); mouse monoclonal anti-ASMA (clone 1A4) from Sigma (Saint Louis, Mo.), and mouse monoclonal anti-actin (MAB1501) from Chemicon International (Temecula, Calif.).
(§4) Immunoreactive bands were quantified by densitometry using the Image 1.32J NIH software. For statistical analysis the raw densitometric data were processed and analyzed using the Prism 3.0 (GraphPad Software Inc.) statistical analysis software.

[2] = tested on: scleroderma lung fibroblasts (SLF); test: CSD peptide treatment of SLF, Western blotting; assay type: cell-based, human
Source text: as §1, §2, §3, §4

[3] = tested on: normal lung fibroblasts (NLF); test: Immunocytochemistry and laser confocal microscopy of CSD peptide-treated NLF; assay type: cell-based, human
Protocol: (§5) NLF or SLF cultured in 4-well glass chamber slides (Nalge Nunc International, Naperville, Ill.) as previously described (43) were incubated with CSD peptide or scrambled (Scr) peptide, fixed, permeabilized, and stained red with 7-aminoactinomycin D to detect nuclei and green using appropriate primary and secondary antibodies to detect caveolin-1 or ph-ERK. Images were captured by confocal microscopy.
as §5, with “ph-JNK” for “caveolin-1”, “ph-Akt.” for “ph-ERK.”
(§6) NLF and SLF were cultured in 4-well glass chamber slides (Nalge Nunc International, Naperville, Ill.) and stained as previously described (43) using the indicated primary antibodies and appropriate secondary antibodies tagged with Alexa Fluoro® 488 (Molecular Probes, Eugene, Oreg.). Nuclei were stained with 7-aminoactinomycin D (Molecular Probes, Eugene, Oreg.). Images were acquired using a Zeiss 510SML Laser Confocal Microscope (excitation S490/20, emission D528/38) fitted with an oil-immersion objective (40×/1.4).

[4] = tested on: scleroderma lung fibroblasts (SLF); test: Immunocytochemistry and laser confocal microscopy of CSD peptide-treated SLF; assay type: cell-based, human
Protocol: as §5
as §5, with “ph-JNK” for “caveolin-1”, “ph-Akt.” for “ph-ERK.”
as §6

[5] = tested on: scleroderma lung fibroblasts (SLF); test: Collagen and ASMA expression in SLF treated with CSD and its subdomains; assay type: cell-based, human
Protocol: The indicated cell types (NLF and SLF) were cultured as described with 0, 1, 3, or 5 μM of the indicated peptides. Collagen in the medium and ASMA and actin (loading control) in the cell layer were detected by Western blotting. Blots were quantified densitometrically. The level of collagen and ASMA in cells treated with no peptide (divided by the level of actin) was set to 100 arbitrary units. Because SLF express higher levels of collagen and ASMA than do NLF, 100 arbitrary of collagen in SLF is equivalent to 195 arbitrary units of collagen in NLF and 100 arbitrary units of ASMA in SLF is equivalent to 255 arbitrary units of ASMA in NLF. The data presented are the average of the densitometric quantification of three independent experiments.
To compare the activity of CSD to its subdomains, five subdomains [A (82-88 amino acids), B (89-95), C (96-101), AB (82-95) and BC (89-101)] were synthesized in fusion with the Antennapedia internalization sequence and added to culture medium at 1, 3, and 5 μM. […] Very different results were obtained when examining ASMA expression.

[6] = tested on: eNOS; conditions: endothelial cells; Bernatchez et al. (4); cited from earlier work
[7] = 5 μM CSD peptide vs scrambled peptide
[8] = 5 μM CSD peptide vs scrambled peptide, collagen in culture medium, Western blotting
[9] = CSD peptide vs scrambled peptide

## DGIWKASFTTFTVTKYWFYR [CSD peptide]
[1]; 5 μM CSD
  time in which inhibition of collagen expression occurs: less than 5 hours
[1]; [7]
  decrease of MEK/ERK activation: about 50%
[1]; [8]
  inhibition of collagen expression: > 95%
[1]; CSD peptide vs Scr peptide
  activation of Akt: inhibited
  activation of JNK: inhibited
  expression of total MEK, total ERK, total Akt, or total JNK: did not affect
[1]; [9]
  expression of caveolin-1 itself, PKCα, or PKCε: did not affect
  tenascin-C expression: inhibited
[2]; 5 μM CSD
  time in which inhibition of collagen expression occurs: less than 5 hours
[2]; [7]
  decrease of MEK/ERK activation: about 50%
[2]; [8]
  inhibition of collagen expression: > 95%
[2]; CSD peptide vs Scr peptide
  activation of Akt: inhibited
  activation of JNK: inhibited
  expression of total MEK, total ERK, total Akt, or total JNK: did not affect
[2]; [9]
  ASMA expression: inhibited
  expression of caveolin-1 itself, PKCα, or PKCε: did not affect
  tenascin-C expression: inhibited
[3]; CSD peptide vs Scr peptide
  distribution of caveolin-1 staining: staining associated with the plasma membrane becoming more prominent
  level of caveolin-1 expression detected by IHC: did not affect
[3]; CSD peptide vs control peptide
  distribution of activated Akt staining: preferentially decreased perinuclear, nuclear, and cytoplasmic staining while increasing staining associated with the plasma membrane
  distribution of activated JNK staining: preferentially decreased perinuclear staining and increased staining associated with the plasma membrane
  level of activated Akt (IHC): decreases
  level of activated ERK (IHC): decreases
  level of activated JNK (IHC): decreases
[3]; after CSD peptide
  localization of residual activated ERK staining: primarily perinuclear and cytoplasmic
[4]; CSD peptide vs Scr peptide
  level of caveolin-1 expression detected by IHC: did not affect
[4]; CSD peptide vs Scr peptide, particularly in SLF
  distribution of caveolin-1 staining: staining associated with the plasma membrane becoming more prominent
[4]; CSD peptide vs control peptide
  distribution of activated Akt staining: preferentially decreased perinuclear, nuclear, and cytoplasmic staining while increasing staining associated with the plasma membrane
  distribution of activated JNK staining: preferentially decreased perinuclear staining and increased staining associated with the plasma membrane; also recorded: eliminated the intense punctate cytoplasmic staining
  level of activated Akt (IHC): decreases
  level of activated ERK (IHC): decreases
  level of activated JNK (IHC): decreases
[4]; after CSD peptide
  localization of residual activated ERK staining: primarily perinuclear and cytoplasmic
[5]; 3 μM peptide
  collagen expression: completely inhibited
[5]; 5 μM peptide
  inhibition of ASMA expression: about 80%
[5]; peptides at 1, 3, and 5 μM
  ASMA expression: inhibited
[6]
  eNOS activity: most strongly inhibited
